# Experimental data published in PMC9060607 (RSC Advances, 2019).
# Where a name gives a salt, the structure may show the parent alone.
# How the values were obtained:
# plasma esterases [1] = assay: Inhibition of CDD hydrolysis in human plasma by esterase inhibitors; type: biochemical; settings: for % inhibition of CDD hydrolysis: CDD 1.5 μM, 37 °C, 5 min
# plasma esterases [2] = assay: Inhibition of CDD hydrolysis in dog plasma by esterase inhibitors; type: biochemical, beagle dog; settings: for % inhibition of CDD hydrolysis: CDD 1.5 μM, 37 °C, 15 min
# plasma esterases [3] = assay: Inhibition of CDD hydrolysis in rat plasma by esterase inhibitors; type: biochemical; settings: for % inhibition of CDD hydrolysis: CDD 1.5 μM, 37 °C, 5 s
# plasma CES = settings: rat plasma, inhibitor 10 mM; cited from earlier work
inhibition of CDD hydrolysis (in words) (plasma esterases [3]; concentration not given),Structure (SMILES),inhibition of CDD hydrolysis (in words) (plasma esterases [1]; concentration not given),% inhibition of CDD hydrolysis (plasma esterases [1]; inhibitor 0.1 mM) [%],% inhibition of CDD hydrolysis (plasma esterases [1]; inhibitor 1 mM) [%],% inhibition of CDD hydrolysis (plasma esterases [2]; inhibitor 0.1 mM) [%],% inhibition of CDD hydrolysis (plasma esterases [2]; inhibitor 1 mM) [%],% inhibition of CDD hydrolysis (plasma esterases [3]; inhibitor 0.1 mM) [%],% inhibition of CDD hydrolysis (plasma esterases [3]; inhibitor 1 mM) [%],inhibition of CDD hydrolysis (in words) (plasma esterases [2]; concentration not given),other results
–,"CC(C)NP(=O)(NC(C)C)OP(=O)(NC(C)C)NC(C)C [Iso-OMPA, tetraisopropyl pyrophosphoramide]",no inhibition,<10,<10,16.9 ± 7.1,17.6 ± 6.7,99.5 ± 11.2,108.3 ± 5.2,fewer than those of the aforementioned esterase inhibitors,"% inhibition of CDD hydrolysis (plasma esterases [3]; inhibitor 0.1 mM, listed as iso-OMPA): > 80%"
–,"[F-].[Na+] [NaF, Sodium fluoride]",no inhibition,–,–,–,–,–,–,no inhibition,% inhibition of CDD hydrolysis (plasma esterases [1]; inhibitor 5 mM): <10%; % inhibition of CDD hydrolysis (plasma esterases [1]; inhibitor 10 mM): <10%; % inhibition of CDD hydrolysis (plasma esterases [2]; inhibitor 5 mM): <10%; % inhibition of CDD hydrolysis (plasma esterases [2]; inhibitor 10 mM): <10%; % inhibition of CDD hydrolysis (plasma esterases [3]; inhibitor 5 mM): <10%; inhibition of CDD hydrolysis (in words) (plasma esterases [3]; inhibitor 10 mM): partially prevented; % inhibition of CDD hydrolysis (plasma esterases [3]; inhibitor 10 mM): 24.4 ± 7.1%
did not prevent,"O=C([O-])CN(CCN(CC(=O)[O-])CC(=O)O)CC(=O)O.[Na+].[Na+] [EDTA, Ethylenediaminetetraacetic acid disodium]",no inhibition,–,–,–,–,–,–,no inhibition,% inhibition of CDD hydrolysis (plasma esterases [1]; inhibitor 5 mM): <10%; % inhibition of CDD hydrolysis (plasma esterases [1]; inhibitor 10 mM): <10%; % inhibition of CDD hydrolysis (plasma esterases [2]; inhibitor 5 mM): <10%; % inhibition of CDD hydrolysis (plasma esterases [2]; inhibitor 10 mM): <10%; % inhibition of CDD hydrolysis (plasma esterases [3]; inhibitor 5 mM): <10%; % inhibition of CDD hydrolysis (plasma esterases [3]; inhibitor 10 mM): <10%
–,"O=S(=O)(F)Cc1ccccc1 [PMSF, Phenylmethanesulfonyl fluoride]",no inhibition,<10,<10,<10,29.6 ± 5.3,<10,96.0 ± 9.2,–,effect on ex vivo hydrolysis of CDD (plasma CES): inhibited
–,"O=[N+]([O-])c1ccc(OP(=O)(O)Oc2ccc([N+](=O)[O-])cc2)cc1 [BNPP, Bis(4-nitrophenyl) phosphate]",–,<10,42.2 ± 6.7,16.6 ± 8.2,63.6 ± 1.8,83.0 ± 8.9,97.0 ± 7.7,–,effect on ex vivo hydrolysis of CDD (plasma CES): inhibited; inhibition of CDD hydrolysis (in words) (plasma esterases [1]; inhibitor 1 mM): partial inhibition
–,"O=C(O)CN(CCOCCOCCN(CC(=O)O)CC(=O)O)CC(=O)O [EGTA, ethyleneglycol-bis(2-aminoethylether)-tetraacetic acid]",partially inhibited,–,–,–,–,–,–,fewer than those of the aforementioned esterase inhibitors,% inhibition of CDD hydrolysis (plasma esterases [1]; inhibitor 5 mM): 23.2 ± 11.4%; % inhibition of CDD hydrolysis (plasma esterases [1]; inhibitor 10 mM): 26.5 ± 3.6%; % inhibition of CDD hydrolysis (plasma esterases [2]; inhibitor 5 mM): 17.3 ± 6.1%; % inhibition of CDD hydrolysis (plasma esterases [2]; inhibitor 10 mM): 19.9 ± 8.0%; % inhibition of CDD hydrolysis (plasma esterases [3]; inhibitor 5 mM): <10%; % inhibition of CDD hydrolysis (plasma esterases [3]; inhibitor 10 mM): <10%
did not prevent,"CNC(=O)Oc1ccc2c(c1)[C@]1(C)CCN(C)[C@@H]1N2C [Eserine, eserine hemisulfate salt]",no inhibition,–,–,–,–,–,–,no inhibition,% inhibition of CDD hydrolysis (plasma esterases [1]; inhibitor 10 μM): <10%; % inhibition of CDD hydrolysis (plasma esterases [1]; inhibitor 100 μM): <10%; % inhibition of CDD hydrolysis (plasma esterases [2]; inhibitor 10 μM): <10%; % inhibition of CDD hydrolysis (plasma esterases [2]; inhibitor 100 μM): <10%; % inhibition of CDD hydrolysis (plasma esterases [3]; inhibitor 10 μM): <10%; % inhibition of CDD hydrolysis (plasma esterases [3]; inhibitor 100 μM): <10%
did not prevent,"O=C(O)c1cc(SSc2ccc([N+](=O)[O-])c(C(=O)O)c2)ccc1[N+](=O)[O-] [DTNB, 5,5′-dithiobis-2-nitrobenzoic acid]",–,<10,52.0 ± 1.5,<10,47.8 ± 0.83,<10,<10,–,inhibition of CDD hydrolysis (in words) (plasma esterases [1]; inhibitor 1 mM): moderate inhibition; inhibition of CDD hydrolysis (in words) (plasma esterases [2]; inhibitor 1 mM): moderate inhibition
–,"Cl.NCCc1ccc(S(=O)(=O)F)cc1 [Pefabloc® SC, 4-(2-aminoethyl-)benzenesulphonylfloride hydrochloride]",no inhibition,<10,<10,<10,25.8 ± 3.1,19.4 ± 2.1,99.8 ± 7.9,–,–

Structure (SMILES),inhibition of CDD hydrolysis (in words) (plasma esterases [3]; concentration not given),inhibition of CDD hydrolysis (in words) (plasma esterases [1]; concentration not given),% inhibition of CDD hydrolysis (plasma esterases [1]; inhibitor 0.1 mM) [%],% inhibition of CDD hydrolysis (plasma esterases [1]; inhibitor 1 mM) [%],% inhibition of CDD hydrolysis (plasma esterases [2]; inhibitor 0.1 mM) [%],% inhibition of CDD hydrolysis (plasma esterases [2]; inhibitor 1 mM) [%],% inhibition of CDD hydrolysis (plasma esterases [3]; inhibitor 0.1 mM) [%],% inhibition of CDD hydrolysis (plasma esterases [3]; inhibitor 1 mM) [%],inhibition of CDD hydrolysis (in words) (plasma esterases [2]; concentration not given),other results
"Cc1ccc(S(=O)(=O)N[C@@H](CCCCN)C(=O)CCl)cc1.Cl [TLCK, N-α-tosyl-L-lysine chloromethylketone hydrochloride]",did not prevent,no inhibition,<10,<10,<10,17.0 ± 10.3,<10,<10,–,–
"C=CC[N+](C)(C)c1ccc(CCC(=O)CCc2ccc([N+](C)(C)CC=C)cc2)cc1.[Br-].[Br-] [BW284c51, 1,5-bis(4-allyldimethylammoniumphenyl)pentan-3-one dibromide]",did not prevent,no inhibition,–,–,–,–,–,–,no inhibition,% inhibition of CDD hydrolysis (plasma esterases [1]; inhibitor 10 μM): <10%; % inhibition of CDD hydrolysis (plasma esterases [1]; inhibitor 100 μM): <10%; % inhibition of CDD hydrolysis (plasma esterases [2]; inhibitor 10 μM): <10%; % inhibition of CDD hydrolysis (plasma esterases [2]; inhibitor 100 μM): <10%; % inhibition of CDD hydrolysis (plasma esterases [3]; inhibitor 10 μM): <10%; % inhibition of CDD hydrolysis (plasma esterases [3]; inhibitor 100 μM): <10%
